The results in this text go back to US11149037B2, “Pyrazole MAGL inhibitors” (H. Lundbeck A/S, priority 2017, dated 2021).

Bounds are passed on as bounds.

Assay [1] deals with FAAH (Homo sapiens (Human), UniProt O00519). The experiment in a line: In vitro competitive activity-based protein profiling, human proteomes (prefrontal cortex or PC3 cell membrane fractions). The following applies: human proteome; for inhibition at 1 µM: read-out: FAAH % inh. 1 μM (human). The assay is classed as biochemical. The method in brief: (§1)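 Activity of MAGL and FAAH was quantified from fluorescent gel band intensities. Beforehand, inhibitors at several concentrations competed against subsequent probe labelling (FP-Rh, JW912 or HT-01) in species-matched proteomes, each step 30 min at 37° C.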

Assay [2] concerns the target MAGL (Homo sapiens (Human), UniProt Q99685). Described as above. Format: biochemical. The conditions noted are these: human proteome; for inhibition at 1 µM: read-out: MAGL % inh. 1 μM (human). In a few lines: as §1
Assay [3] concerns the target T1, FAAH (Mus musculus (Mouse), UniProt O08914). The experiment in a line: In vitro competitive activity-based protein profiling, mouse proteomes (brain membrane fraction or cell lysates). The assay is classed as biochemical. The conditions noted are these: mouse proteome, read-out: FAAH % inh. 1 μM (mouse). The method in brief:
as §1

The target of assay [4] is T2, MAGL (Mus musculus (Mouse), UniProt O35678). The assay is described as above. Format: biochemical. The following applies: mouse proteome, read-out: MAGL % inh. 1 μM (mouse). The method in brief:
as §1

Assay [5] concerns the target T1, FAAH. The experiment in a line: Mouse brain proteomes from inhibitor treated mice (oral gavage, sacrificed 4 h after administration). The conditions noted are these: 5 mg/kg oral gavage. The assay is classed as in vivo. The procedure:
(§2) Preparation of Mouse Brain Proteomes from Inhibitor Treated Mice.
(§3) Inhibitors were administered to wild-type C57B1/6J by oral gavage in a vehicle of polyethylene glycol. Each animal was sacrificed 4 h following administration and brain proteomes were prepared and analyzed according to previously established methods (See Niphakis, M. J., et al. (2011) ACS Chem. Neurosci. and Long, J. Z., et al. Nat. Chem. Biol. 5:37-44).

In assay [6] the target is T2, MAGL. The description is as above. The assay is classed as in vivo. The conditions noted are these: 5 mg/kg oral gavage. The procedure:
as §2, §3

T1 sequence (O08914 whole entry): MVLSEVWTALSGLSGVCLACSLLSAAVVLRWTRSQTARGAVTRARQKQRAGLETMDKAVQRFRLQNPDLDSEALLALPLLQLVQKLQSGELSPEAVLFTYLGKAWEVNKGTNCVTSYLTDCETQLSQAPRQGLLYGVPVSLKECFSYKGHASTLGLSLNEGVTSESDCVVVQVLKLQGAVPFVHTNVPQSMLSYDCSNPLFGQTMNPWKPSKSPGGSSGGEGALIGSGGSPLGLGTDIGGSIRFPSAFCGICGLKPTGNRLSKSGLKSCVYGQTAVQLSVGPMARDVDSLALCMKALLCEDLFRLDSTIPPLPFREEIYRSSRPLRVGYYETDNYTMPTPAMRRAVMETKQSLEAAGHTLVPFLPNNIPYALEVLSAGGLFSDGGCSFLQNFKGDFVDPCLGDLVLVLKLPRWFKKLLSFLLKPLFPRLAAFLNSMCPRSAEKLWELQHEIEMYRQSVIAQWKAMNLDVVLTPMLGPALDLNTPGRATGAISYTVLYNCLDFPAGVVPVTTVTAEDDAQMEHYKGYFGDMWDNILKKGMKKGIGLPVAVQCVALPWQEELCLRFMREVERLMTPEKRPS
Sequence of MAGL (Homo sapiens (Human), UniProt Q99685) (Q99685 whole entry): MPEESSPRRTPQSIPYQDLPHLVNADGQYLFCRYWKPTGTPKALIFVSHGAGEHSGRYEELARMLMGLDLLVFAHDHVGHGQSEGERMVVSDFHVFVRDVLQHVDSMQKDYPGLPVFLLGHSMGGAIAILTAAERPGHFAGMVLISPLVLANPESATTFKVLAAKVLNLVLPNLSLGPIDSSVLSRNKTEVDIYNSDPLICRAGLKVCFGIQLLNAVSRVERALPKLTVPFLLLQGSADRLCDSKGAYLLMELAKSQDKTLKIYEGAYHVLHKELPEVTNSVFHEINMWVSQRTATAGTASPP
Sequence of FAAH (Homo sapiens (Human), UniProt O00519) (O00519 whole entry): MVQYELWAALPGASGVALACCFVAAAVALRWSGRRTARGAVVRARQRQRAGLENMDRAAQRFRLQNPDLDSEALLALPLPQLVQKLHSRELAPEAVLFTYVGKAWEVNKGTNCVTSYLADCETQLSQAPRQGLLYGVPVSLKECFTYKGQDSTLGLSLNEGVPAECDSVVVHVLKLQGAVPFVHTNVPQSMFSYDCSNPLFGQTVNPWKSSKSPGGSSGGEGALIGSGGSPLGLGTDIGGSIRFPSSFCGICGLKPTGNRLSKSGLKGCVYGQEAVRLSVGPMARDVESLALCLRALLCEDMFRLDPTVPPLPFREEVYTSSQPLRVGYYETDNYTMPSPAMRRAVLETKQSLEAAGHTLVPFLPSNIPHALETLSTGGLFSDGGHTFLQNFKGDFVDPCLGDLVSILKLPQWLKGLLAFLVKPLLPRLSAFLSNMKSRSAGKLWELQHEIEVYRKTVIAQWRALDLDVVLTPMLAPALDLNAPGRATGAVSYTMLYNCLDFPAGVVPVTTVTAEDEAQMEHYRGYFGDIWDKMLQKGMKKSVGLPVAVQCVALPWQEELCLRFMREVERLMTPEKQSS
T2 sequence (O35678 whole entry): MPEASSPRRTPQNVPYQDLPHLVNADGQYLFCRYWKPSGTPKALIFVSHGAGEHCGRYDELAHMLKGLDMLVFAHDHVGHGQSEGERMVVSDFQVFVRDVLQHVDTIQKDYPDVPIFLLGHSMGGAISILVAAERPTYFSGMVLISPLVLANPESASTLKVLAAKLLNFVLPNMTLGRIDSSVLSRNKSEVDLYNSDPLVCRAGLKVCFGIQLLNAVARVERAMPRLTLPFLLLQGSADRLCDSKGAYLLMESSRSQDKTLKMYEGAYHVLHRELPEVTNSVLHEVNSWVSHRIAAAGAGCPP

For the compound `CC(C)OC1CCN(c2cc(CN3CCN(C(=O)n4ccc(NS(C)(=O)=O)n4)C[C@@H]3C)ccc2Cl)CC1` [Example 32, (S)—N-(1-(4-(4-chloro-3-(4-isopropoxypiperidin-1-yl)benzyl)-3-methylpiperazine-1-carbonyl)-1H-pyrazol-3-yl)methanesulfonamide], the inhibition at 1 µM was 0 to 25% at FAAH [1], over 75% at MAGL [2], 0 to 25% at FAAH [3] and over 75% on MAGL [4]. Further, at FAAH [5], the “FAAH % inh. 5 mg/kg (mouse)” value is “D (% inhibition is greater than or equal to 0% and less than 25%)”. For the same compound, the “MAGL % inh. 5 mg/kg (mouse)” value on MAGL [6] is on record as “A (% inhibition is greater than or equal to 75%)”.

`CC(=O)Nc1ccn(C(=O)N2CCC3(CCCN3Cc3cc4cc(Cl)ccc4s3)CC2)n1` [Example 39, N-(1-(1-((5-Chlorobenzo[b]thiophen-2-yl)methyl)-1,8-diazaspiro[4.5]decane-8-carbonyl)-1H-pyrazol-3-yl)acetamide]: the IC50 was 1 to 10 µM on FAAH [1] and under 0.1 µM on MAGL [2]. Besides, the inhibition at 1 µM at FAAH [3] is 50 to 75%; on MAGL [4] it was over 75%. At FAAH [5], the “FAAH % inh. 5 mg/kg (mouse)” value is “D (% inhibition is greater than or equal to 0% and less than 25%)”. Moreover, the “MAGL % inh. 5 mg/kg (mouse)” value at MAGL [6] is listed as “A (% inhibition is greater than or equal to 75%)”.

Consider `CS(=O)(=O)Nc1ccn(C(=O)N2CCC3(CCN(Cc4ccc(C(F)(F)F)cc4N4CCCC4)C3)CC2)n1` [Example 58, N-(1-(2-(2-(Pyrrolidin-1-yl)-4-(trifluoromethyl)benzyl)-2,8-diazaspiro[4.5]decane-8-carbonyl)-1H-pyrazol-3-yl)methanesulfonamide], for which the inhibition at 1 µM at FAAH [1] was 0 to 25%; on MAGL [2], over 75%; on FAAH [3], 0 to 25%; at MAGL [4], over 75%. For the same compound, the “FAAH % inh. 5 mg/kg (mouse)” value at FAAH [5] was “D (% inhibition is greater than or equal to 0% and less than 25%)”. Moreover, the “MAGL % inh. 5 mg/kg (mouse)” value at MAGL [6] was “A (% inhibition is greater than or equal to 75%)”.

With `CS(=O)(=O)Nc1ccn(C(=O)N2CCC3(CCN(Cc4ccc(Cl)cc4N4CCCC4)C3)CC2)n1` [Example 63, N-(1-(2-(4-Chloro-2-(pyrrolidin-1-yl)benzyl)-2,8-diazaspiro[4.5]decane-8-carbonyl)-1H-pyrazol-3-yl)methanesulfonamide], the inhibition at 1 µM is 0 to 25% on FAAH [1], over 75% at MAGL [2], 0 to 25% on FAAH [3] and over 75% at MAGL [4]. In addition, the figures for the IC50 on FAAH [1] and at MAGL [2] were 1 to 10 µM and under 0.1 µM, respectively. Further, the “FAAH % inh. 5 mg/kg (mouse)” value on FAAH [5] is “D (% inhibition is greater than or equal to 0% and less than 25%)”. Further, the “MAGL % inh. 5 mg/kg (mouse)” value on MAGL [6] was “C (% inhibition is greater than or equal to 25% and less than 50%)”.

In the case of `CS(=O)(=O)Nc1ccn(C(=O)N2CCN(Cc3ccc(C(F)(F)F)nc3N3CCCC3)CC2)n1` [Example 71, N-(1-(4-((2-(Pyrrolidin-1-yl)-6-(trifluoromethyl)pyridin-3-yl)methyl)piperazine-1-carbonyl)-1H-pyrazol-3-yl)methanesulfonamide], the inhibition at 1 µM is 0 to 25% on FAAH [1], over 75% on MAGL [2], 0 to 25% at FAAH [3] and over 75% at MAGL [4]. The “FAAH % inh. 5 mg/kg (mouse)” value at FAAH [5] was “D (% inhibition is greater than or equal to 0% and less than 25%)”. In addition, on MAGL [6], the “MAGL % inh. 5 mg/kg (mouse)” value was “A (% inhibition is greater than or equal to 75%)”.

In the case of `CN(Cc1ccc(C(F)(F)F)cc1N1CCCC1)C1(C)CCN(C(=O)n2ccc(NS(C)(=O)=O)n2)CC1` [Example 75, N-(1-(4-Methyl-4-(methyl(2-(pyrrolidin-1-yl)-4-(trifluoromethyl)benzyl)amino)piperidine-1-carbonyl)-1H-pyrazol-3-yl)methanesulfonamide], the inhibition at 1 µM at FAAH [1] was 0 to 25%; on MAGL [2], over 75%; at FAAH [3] it was 0 to 25%; on MAGL [4] it was over 75%. For the same compound, the “FAAH % inh. 5 mg/kg (mouse)” value at FAAH [5] was “D (% inhibition is greater than or equal to 0% and less than 25%)”. The “MAGL % inh. 5 mg/kg (mouse)” value on MAGL [6] is on record as “A (% inhibition is greater than or equal to 75%)”.

As to `CC(=O)Nc1ccn(C(=O)N2CCN(Cc3ccc(C(F)(F)F)cc3NCCCC(=O)O)CC2)n1` [Example 76, 4-((2-((4-(3-Acetamido-1H-pyrazole-1-carbonyl)piperazin-1-yl)methyl)-5-(trifluoromethyl)phenyl)amino)butanoic acid], the inhibition at 1 µM at FAAH [1] was 0 to 25%; at MAGL [2] it was over 75%; at FAAH [3], 0 to 25%; at MAGL [4], over 75%. Further, the “FAAH % inh. 5 mg/kg (mouse)” value at FAAH [5] is “D (% inhibition is greater than or equal to 0% and less than 25%)”. Further, the “MAGL % inh. 5 mg/kg (mouse)” value on MAGL [6] is “D (% inhibition is greater than or equal to 0% and less than 25%)”.

For `CC(=O)Nc1ccn(C(=O)N2CCC3(CCCN3Cc3ccc(C(F)(F)F)cc3NCCCC(=O)O)CC2)n1` [Example 79, 4-((2-((8-(3-Acetamido-1H-pyrazole-1-carbonyl)-1,8-diazaspiro[4.5]decan-1-yl)methyl)-5-(trifluoromethyl)phenyl)amino)butanoic acid], the inhibition at 1 µM was 0 to 25% at FAAH [1], over 75% at MAGL [2], 0 to 25% at FAAH [3] and over 75% on MAGL [4]. Moreover, the “FAAH % inh. 5 mg/kg (mouse)” value on FAAH [5] is “D (% inhibition is greater than or equal to 0% and less than 25%)”. Moreover, the “MAGL % inh. 5 mg/kg (mouse)” value on MAGL [6] was “D (% inhibition is greater than or equal to 0% and less than 25%)”.

Turning to `CS(=O)(=O)Nc1ccn(C(=O)N2CCC(Oc3ccc(C(F)(F)F)cc3N3CCCC3)CC2)n1` [Example 80, N-(1-(4-(2-(Pyrrolidin-1-yl)-4-(trifluoromethyl)phenoxy)piperidine-1-carbonyl)-1H-pyrazol-3-yl)methanesulfonamide], the inhibition at 1 µM on FAAH [1] was 0 to 25%; on MAGL [2], over 75%; on FAAH [3], 0 to 25%; on MAGL [4], over 75%. Also, the “FAAH % inh. 5 mg/kg (mouse)” value at FAAH [5] was “D (% inhibition is greater than or equal to 0% and less than 25%)”. Moreover, the “MAGL % inh. 5 mg/kg (mouse)” value at MAGL [6] is on record as “A (% inhibition is greater than or equal to 75%)”.

In the case of `CC(=O)Nc1ccn(C(=O)N2CCC3(CCCN3C(=O)c3ccc(C#N)c(C4CC4)c3)CC2)n1` [Example 87, N-(1-(1-(4-Cyano-3-cyclopropylbenzoyl)-1,8-diazaspiro[4.5]decane-8-carbonyl)-1H-pyrazol-3-yl)acetamide], the inhibition at 1 µM on FAAH [1] was 0 to 25%; at MAGL [2] it was over 75%; at FAAH [3], 0 to 25%; on MAGL [4], over 75%. Besides, the “FAAH % inh. 5 mg/kg (mouse)” value on FAAH [5] is “D (% inhibition is greater than or equal to 0% and less than 25%)”. Moreover, the “MAGL % inh. 5 mg/kg (mouse)” value at MAGL [6] was “D (% inhibition is greater than or equal to 0% and less than 25%)”.

For the compound `CS(=O)(=O)Nc1ccn(C(=O)N2CCN(Cc3ccc(Cl)nc3N3CCCC3)CC2)n1` [Example 90, N-(1-(4-((6-Chloro-2-(pyrrolidin-1-yl)pyridin-3-yl)methyl)piperazine-1-carbonyl)-1H-pyrazol-3-yl)methanesulfonamide], the inhibition at 1 µM at FAAH [1] was 0 to 25%; on MAGL [2], over 75%; at FAAH [3], 0 to 25%; at MAGL [4] it was over 75%. At FAAH [5], the “FAAH % inh. 5 mg/kg (mouse)” value is “D (% inhibition is greater than or equal to 0% and less than 25%)”. Further, the “MAGL % inh. 5 mg/kg (mouse)” value at MAGL [6] was “C (% inhibition is greater than or equal to 25% and less than 50%)”.

In general, IC50 refers to the concentration that inhibits the measured activity by half. The low end stands for greater potency in that assay, the high end for weaker potency in that assay.
